According to EP1069130A1, “Moenomycin A Derivatives, their preparation, and use as antibacterial products” (HOECHST MARION ROUSSEL, priority 1999, dated 2001):

Test system: S. pyogenes A561
Assay: Method of dilutions in liquid medium (minimum inhibiting concentration)
Assay type: cell-based
Details: liquid nutritive medium, incubation twenty-four hours at 37° C, growth inhibition read by transillumination; for MIC: Streptococcus pyogenes, 24 h, read-out: minimum inhibiting concentrations (M.I.C.)
Description: Method of dilutions in liquid medium.
A series of tubes were prepared in which the same amount of sterile nutritive medium was distributed and increasing amounts of the product to be studied was distributed in each tube. Then, each tube was seeded with a bacterial strain and after incubationg for twenty-four hours in an oven at 37° C, the inhibition of growth was determined by transillumination which allowed the minimum inhibiting concentrations (M.I.C.) to be evaluated.
Products were tested on many strains inclusing : • S. aureus SG511 • S. aureus SG511 (+10 % serum) • S. aureus Exp54146 • S. pyogenes A561 • E. faecium M78L

Compound	minimum inhibiting concentrations (M.I.C.)	MIC
CC(=O)NC1C(OC2C(COC3OC(CO)C(O)C(O)C3O)OC(OC3C(OP(=O)(O)OCC(OCCNCC=C(C)CCCC(C)CCCC(C)CCCC(C)C)C(=O)O)OC(C(N)=O)C(C)(O)C3OC(N)=O)C(NC(C)=O)C2O)OC(C)C(OC2OC(C(N)=O)C(O)C(O)C2O)C1O [Example 4, 3-carbamate 1-[(2R)-2-carboxy-2-[[(3,7,11,15-tetramethyl-2-hexadecenyl)amino]ethoxy]ethyl hydrogen phosphate] 0-β-D-glucopyranosyl-(1→6)-O-[O-(β-D-galactopyranuronamidosyl)-(1→4)-2-(acetylamino)-2,6-dideoxy-β-D-glucopyranosyl-(1→4]-O-2-(acetylamino)-2-deoxy-.beat.-D-glucopyranosyl-(1→2)-4-C-methyl-α-D-Glucopyranuronamide]	≤ 1,2 microgramme/ml	
CCCCCCCCCCCCc1ccc(NCCO[C@H](COP(=O)(O)O[C@H]2O[C@H](C(N)=O)[C@@](C)(O)[C@H](OC(N)=O)[C@H]2O[C@@H]2O[C@H](CO[C@@H]3O[C@H](CO)[C@@H](O)[C@H](O)[C@H]3O)[C@@H](O[C@@H]3O[C@H](C)[C@@H](O[C@@H]4O[C@H](C(N)=O)[C@H](O)[C@H](O)[C@H]4O)[C@H](O)[C@H]3NC(C)=O)[C@H](O)[C@H]2NC(C)=O)C(=O)O)cc1 [Example 5, 3-carbamate 1-[(2R)-2-carboxy-2-[[(4-dodecylphenyl))amino]ethoxy]ethyl hydrogen phosphate] 0-β-D-glucopyranosyl-(1→6)-O-[O-(β-D-galactopyranuronamidosyi)-(1→4)-2-(acetylamino)-2,6-dideoxy-β-D-glucopyranosyl-(1→4]-O-2-(acetylamino)-2-deoxy-.beat.-D-glucopyranosyl-(1→2)-4-C-methyl-α-D-Glucopyranuronamide]		≤ 1.2 µg/mL
C=CC(CCCCCCCCC)C(O)CO[C@H](COP(=O)(O)O[C@H]1O[C@H](C(N)=O)[C@@](C)(O)[C@H](OC(N)=O)[C@H]1O[C@@H]1O[C@H](CO[C@@H]2O[C@H](CO)[C@@H](O)[C@H](O)[C@H]2O)[C@@H](O[C@@H]2O[C@H](C)[C@@H](O[C@@H]3O[C@H](C(N)=O)[C@H](O)[C@H](O)[C@H]3O)[C@H](O)[C@H]2NC(C)=O)[C@H](O)[C@H]1NC(C)=O)C(=O)O (stereo partly drawn) [Example 6]		≤ 1.2 µg/mL
